The test system of this assay is tasters. In words: Reduced sugar dry beverage mix (strawberry beverage) sensory evaluation. Type of assay: in vivo, human. The note with it: ⅔ sugared strawberry beverage + 1.3 ppm, scale 1 to 10. The protocol: 1000.00 g of the finished beverage was formulated. Compound 23 was diluted with maltodextrin (1:100) to form a sweetener concentrate composition prior to addition to the other dry beverage base ingredients. 50 g of the maltodextrin was placed on the bottom of a clean and dried mortar and 1.0000 g of compound 23 was added and slowly ground into the maltodextrin with the pestle. The remaining maltodextrin was added to a planetary mixer with a wire whip attachment (KITCHEN AIDE™ Mixer), and the contents of the mortar were placed into the mixer and the mixer was turned on to a slow speed (setting 3) and allowed to mix for an additional 10 minutes.
The contents of the glass container were re-mixed in the glass container before taking out aliquots of the dry diluted sweet enhancer. Using the KITCHEN AIDE™ Mixer with the wire whip attachment, the granulated ingredients of the beverage base (sugar, acid) were mixed slowly at speed 2 using the wire whip attachment for 3 minutes and 0.13 grams of the 1:100 diluted solid sweetener concentrate composition was added and mixed at speed 3 for 5 minutes. Calcium silicate was added and allowed to mix for another 5 minutes until the silicate was evenly dispersed. The dry flavor and dry color were added last and allowed to mix for another 10 minutes. A plastic spatula was used to scrape the inside of the mixing bowl to ensure complete recovery of the dry beverage base composition.
The water was placed in a stainless steel 3 L cylinder and a LIGHTNIN™ Mixer was set at 500 to 650 rpms using a 2.5 inch (6.35 cm) impeller with three straight blades. This was used to create a vortex in the water. The impeller blades were positioned at a 30 to 45° angle. The dry beverage base (53.525 grams) was slowly added to the vortex of the water and was mixed for an additional 5 minutes until all the sugar and acids had dissolved.
Samples of control sugared strawberry beverages containing sugar at the full level indicated above (50, 66.67, 80, 90, and 100% of full sugar), and the strawberry beverage comprising ⅔ sugar+1.3 ppm compound 23 were given to tasters in randomized order. Tasters used an anchored scale from 1 to 10 (1 being no sweetness, 10 being intense sweetness). Tasters were instructed to hold the beverage in their mouth for at least 5 seconds, expectorate the sample, and evaluate/rank the “peak” of sweetness intensity of their various samples. They were allowed to re-taste and re-position their samples on the physical line scale. Once satisfied with their rankings, they wrote down their code and corresponding rank score.

With `CC(C)CNC(=O)C(C)(C)c1ccc(-c2cncc(C#N)c2)cc1` [Compound 23, 2-(4-(5-cyanopyridin-3-yl)phenyl)-N-isobutyl-2-methylpropanamide], the “Sweet Score from Individual Tastors #1” value worked out at 8, the “Sweet Score from Individual Tastors #2” value amounted to 7, the “Sweet Score from Individual Tastors #3” value is 7 and the “Sweet Score from Individual Tastors #4” value was determined as 8. Moreover, the “Sweet Score from Individual Tastors #5” value was 7.5, the “Sweet Score from Individual Tastors #6” value worked out at 7, the “Sweet Score from Individual Tastors #7” value is 8 and the “Sweet Score from Individual Tastors #8” value worked out at 8. Where the note is “mean of eight tasters”, the “Average Scores” value amounted to 7.56.

Source of the values: patent publication US7842324B2 (Senomyx, Inc., priority 2005, dated 2010).
